Data taken from patent publication US20100113608A1, “Tryptase Enzyme Inhibiting Aminothiophenols” (priority 2008, published 2010).

What was measured:
tryptase enzyme = biological target: T1, tryptase enzyme (Homo sapiens, UniProt P20231); experiment: Tryptase enzyme inhibition (cleavage of tosyl-gly-pro-lys-pNA, absorbance at 405 nm); format: biochemical; settings: 2 h at 37° C.; relative to controls
T1 construct: purchased Millipore Inc., Westbury, Mass
Method: A. Tryptase Enzyme Inhibition
Tryptase activity was determined by monitoring the production of chromophore p-nitroaniline (pNA) generated by the cleavage of tosyl-gly-pro-lys-pNA by the tryptase enzyme according to the manufacturer's protocol (Millipore Inc., Westbury, Mass.). In a 96-well format, 10 μL of tryptase was added to 10 μL of sample, followed by 20 μL of tosyl-gly-pro-lys-pNA and 160 μL of 1× reaction buffer and incubated for 2 h at 37° C. After the incubation, absorbance at 405 nm was measured in each well using a Tecan M200 microplate reader.

[1] = Pharmacokinetic analysis: serum and urine by DART TOF-MS after a 100 mg lozenge; format: in vivo, human; settings: humans
Method: Five healthy consenting female adults ranging in age from 23 to 57 were took diets free of flavonoids and any NSAIDs. A certified individual collected blood samples at several time intervals between 0 and 480 min after compounds of the present invention were ingested in a mixture. Immediately after the time zero blood samples were collected, a single 100 mg dose of the composition was administered as a lozenge. Blood samples were handled with approved protocols and precautions, centrifuged to remove cells and the serum fraction was collected and frozen. Blood was not treated with heparin to avoid any analytical interference. Urine samples were collected from the same five subjects on a time course (0 to 8 h). The cells were removed from the blood samples by centrifugation and the serum was collected. Serum samples were prepared for DART TOF-MS analysis by extraction with an equal volume of neat ethanol (USP) to minimize background of proteins, peptides, and polysaccharides present in serum. The ethanol extract was centrifuged for 10 min at 4° C., the supernatant was removed, concentrated to 200 μL volume, and 50 μL of an internal standard was added. Urine samples were not treated and used directly for DART TOF-MS. DART TOF-MS analyses were conducted as described above.

[2] = in a mixture, slow-dissolve lozenge

T1 sequence (P20231 31-275): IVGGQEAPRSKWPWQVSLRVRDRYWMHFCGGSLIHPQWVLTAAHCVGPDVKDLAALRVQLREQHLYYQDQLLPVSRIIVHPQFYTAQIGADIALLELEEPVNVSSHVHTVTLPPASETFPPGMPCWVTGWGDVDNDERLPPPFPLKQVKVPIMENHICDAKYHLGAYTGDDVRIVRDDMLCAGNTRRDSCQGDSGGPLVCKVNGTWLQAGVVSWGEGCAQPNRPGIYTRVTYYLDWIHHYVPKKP

## CCCCCN(c1ccc(N)cc1)c1ccc(S)cc1.Cl [III, 4-[(4-Amino-phenyl)-pentyl-amino]benzenethiol hydrochloride salt]
Tryptase enzyme
  IC50: 493 µM
[1]; [2]
  Time to appearance in urine: ≤ 1 h
  Time to first appearance in bloodstream (serum): ≤ 10 min
  Time up to which present in the blood post-ingestion: up to 360 min
  Time up to which present in urine post-ingestion: up to 8 h
[1]; lozenge, 480 min
  Detection in blood at 480 min after ingestion: not detected
